Legend:
[1] = target: T1, Neuropeptide Y receptor type 1 (Homo sapiens, UniProt P25929); experiment: NPY Y1-antagonistic activity in HEL cells by measuring the inhibition of porcine NPY (10 nM) stimulated increase in the intracellular [Ca2+] concentration in a FURA-assay.; format: functional, cell-based
T1 sequence (P25929 whole entry): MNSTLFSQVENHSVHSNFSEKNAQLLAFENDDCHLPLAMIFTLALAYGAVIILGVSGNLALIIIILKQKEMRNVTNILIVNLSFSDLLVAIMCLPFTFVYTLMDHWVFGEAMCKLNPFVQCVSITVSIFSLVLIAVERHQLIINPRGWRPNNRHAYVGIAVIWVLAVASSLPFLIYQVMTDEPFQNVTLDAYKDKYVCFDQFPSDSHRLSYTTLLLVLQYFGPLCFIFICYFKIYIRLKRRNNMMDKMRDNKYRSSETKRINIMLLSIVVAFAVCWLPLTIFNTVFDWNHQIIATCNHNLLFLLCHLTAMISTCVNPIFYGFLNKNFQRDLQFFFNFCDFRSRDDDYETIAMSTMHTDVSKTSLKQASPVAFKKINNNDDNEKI

[2] = target: T2, Neuropeptide Y receptor type 5 (Homo sapiens, UniProt Q15761); experiment: Inhibition of binding of [3H]propionyl-NPY (1 nM) to Neuropeptide Y receptor type 5 in HEC-1-B cells; format: cell-based
T2 sequence (Q15761 whole entry): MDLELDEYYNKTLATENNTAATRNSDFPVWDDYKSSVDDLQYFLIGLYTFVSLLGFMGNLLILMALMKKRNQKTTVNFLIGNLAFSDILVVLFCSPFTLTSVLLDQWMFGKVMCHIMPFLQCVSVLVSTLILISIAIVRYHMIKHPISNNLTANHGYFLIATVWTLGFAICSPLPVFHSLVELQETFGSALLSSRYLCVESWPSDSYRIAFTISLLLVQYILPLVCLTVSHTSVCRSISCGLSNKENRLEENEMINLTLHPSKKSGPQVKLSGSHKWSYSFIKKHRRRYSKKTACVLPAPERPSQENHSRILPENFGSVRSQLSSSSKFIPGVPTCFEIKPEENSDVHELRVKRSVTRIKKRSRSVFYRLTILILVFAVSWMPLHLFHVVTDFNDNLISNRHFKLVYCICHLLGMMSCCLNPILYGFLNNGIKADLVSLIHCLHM

[3] = target: T1, Neuropeptide Y receptor type 1; experiment: Inhibition of binding of [3H]propionyl-NPY (1 nM) to Neuropeptide Y receptor type 1 in SK-N-MC cells; format: cell-based
[4] = target: T3, Neuropeptide Y receptor type 2 (Homo sapiens, UniProt P49146); experiment: Inhibition of binding of [3H]propionyl-NPY (1 nM) to Neuropeptide Y receptor type 2 in SMS-KAN cell membranes
T3 sequence (P49146 whole entry): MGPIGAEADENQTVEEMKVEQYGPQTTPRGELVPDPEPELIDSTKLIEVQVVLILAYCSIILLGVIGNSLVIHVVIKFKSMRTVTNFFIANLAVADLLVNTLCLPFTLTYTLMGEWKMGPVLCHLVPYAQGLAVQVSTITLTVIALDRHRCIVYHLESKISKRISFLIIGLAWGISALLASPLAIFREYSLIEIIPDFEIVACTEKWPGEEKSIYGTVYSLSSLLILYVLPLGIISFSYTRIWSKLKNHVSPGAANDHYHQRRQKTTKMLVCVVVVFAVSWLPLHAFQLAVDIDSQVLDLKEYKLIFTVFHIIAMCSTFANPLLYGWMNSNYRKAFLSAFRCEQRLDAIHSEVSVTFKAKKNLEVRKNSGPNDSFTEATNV

[5] = target: Neuropeptide Y receptor type 1 (Homo sapiens) (UniProt P25929); experiment: NPY Y1-antagonistic activity in HEL cells by measuring the inhibition of porcine NPY (10 nM) stimulated increase in the intracellular [Ca2+] concentration in a FURA-assay;Inactive, less than 20% inhibition at […]

## N=C(N)NCCCC(NC(=O)C(c1ccccc1)c1ccccc1)C(=O)NCc1ccccc1 (configuration not stated)
[1]; read-out: IC50
  IC50: 110 nM

## N=C(NCCCc1ccccc1)NCCCC(NC(=O)Cc1ccc(-c2ccccc2)cc1)C(=O)N1CCCc2cc(O)ccc2C1 (configuration not stated)
[2]
  IC50: 0.77 µM
[1]; read-out: IC50
  IC50: 11900 nM
[3]
  IC50: 22000 nM
[4]
  IC50: 78 µM

## N=C(N)NCCCC(NC(=O)Cc1ccc(-c2ccccc2)cc1)C(=O)N[C@H]1CCc2ccccc21 (some centres not stated)
[1]; hel
  IC50: Not Active

## N=C(N)NCCCC(NC(=O)C(c1ccccc1)c1ccccc1)C(=O)N[C@@H]1CCc2ccccc21 (some centres not stated)
[1]; read-out: IC50
  IC50: 21000 nM

## N=C(N)NCCCC(NC(=O)C(c1ccccc1)c1ccccc1)C(=O)N[C@@H](C(N)=O)c1ccc(O)cc1 (some centres not stated)
[1]; read-out: IC50
  IC50: 8100 nM

## N=C(N)NCCCC(NC(=O)C(c1ccccc1)c1ccccc1)C(=O)N[C@H]1CCc2ccccc21 (some centres not stated)
[1]; read-out: IC50
  IC50: 1400 nM

## N=C(NCCCc1ccccc1)NCCCC(NC(=O)Cc1ccc(-c2ccccc2)cc1)C(=O)N1CCCc2ccccc2C1 (configuration not stated)
[1]; hel
  IC50: Not Active

## N=C(N)NCCCC(NC(=O)C(c1ccc(Cl)cc1)c1ccc(Cl)cc1)C(=O)N1CCCc2ccccc2C1 (configuration not stated)
[1]; read-out: IC50
  IC50: 1100 nM

## N=C(N)NCCCC(NC(=O)C(c1ccccc1)(c1ccccc1)c1ccccc1)C(=O)NCc1ccccc1 (configuration not stated)
[5]
  IC50: Not Active

## N=C(N)NCCCC(NC(=O)Cc1ccc(-c2ccccc2)cc1)C(=O)NCc1ccccc1 (configuration not stated)
[1]; read-out: IC50
  IC50: 21800 nM

## N=C(N)NCCCC(NC(=O)C(c1ccccc1)c1ccccc1)C(=O)NCCc1ccccn1 (configuration not stated)
[1]; read-out: IC50
  IC50: 11500 nM

## N=C(N)NCCCC(NC(=O)C(c1ccccc1)c1ccc(Cl)cc1)C(=O)NCc1ccccc1 (configuration not stated)
[2]
  IC50: 2.6 µM
[1]; read-out: IC50
  IC50: 81 nM
[3]
  IC50: 170 nM
[4]
  IC50: 97 µM

## C[C@@H](NC(=O)C(CCCNC(=N)N)NC(=O)C(c1ccccc1)c1ccccc1)c1ccccc1 (some centres not stated)
[2]
  IC50: 48 µM
[1]; read-out: IC50
  IC50: 200 nM
[3]
  IC50: 150 nM
[4]
  IC50: 177 µM

## N=C(N)NCCCC(NC(=O)C(c1ccccc1)c1ccc(Cl)cc1)C(=O)N[C@H]1CCc2ccccc21 (some centres not stated)
[2]
  IC50: 11.9 µM
[1]; read-out: IC50
  IC50: 3000 nM
[3]
  IC50: 5300 nM
[4]
  IC50: 59 µM

## N=C(N)NCCCC(NC(=O)C(c1ccc(Cl)cc1)c1ccc(Cl)cc1)C(=O)NCc1ccccc1 (configuration not stated)
[1]; read-out: IC50
  IC50: 100 nM

## N=C(N)NCCCC(NC(=O)C(c1ccccc1)c1ccccc1)C(=O)N[C@H](CO)c1ccccc1 (some centres not stated)
[2]
  IC50: 68 µM
[1]; read-out: IC50
  IC50: 900 nM
[3]
  IC50: 184 nM
[4]
  IC50: 540 µM

## N=C(N)NCCCC(NC(=O)Cc1ccc(-c2ccccc2)cc1)C(=O)N1CCCc2ccccc2C1 (configuration not stated)
[1]; read-out: IC50
  IC50: 76000 nM

## N=C(N)NCCCC(NC(=O)C(c1ccccc1)c1ccccc1)C(=O)N[C@@H](C(N)=O)c1ccccc1 (some centres not stated)
[2]
  IC50: 163 µM
[1]; read-out: IC50
  IC50: 4600 nM
[3]
  IC50: 2400 nM
[4]
  IC50: > 400 µM

## N=C(N)NCCCC(NC(=O)C(c1ccccc1)c1ccccc1)C(=O)N1CCCc2cc(O)ccc2C1 (configuration not stated)
[2]
  IC50: 25 µM
[1]; read-out: IC50
  IC50: 280 nM
[3]
  IC50: 670 nM
[4]
  IC50: 247 µM

## N=C(N)NCCCC(NC(=O)C(c1ccccc1)(c1ccccc1)c1ccccc1)C(=O)N1CCCc2ccccc2C1 (configuration not stated)
[1]; read-out: IC50
  IC50: 51000 nM

## N=C(N)NCCCC(NC(=O)C(c1ccccc1)c1ccccc1)C(=O)N[C@@H]1C[C@H](CO)c2ccccc21 (some centres not stated)
[5]
  IC50: Not Active

## C[C@H](NC(=O)C(CCCNC(=N)N)NC(=O)C(c1ccccc1)c1ccccc1)c1ccccc1 (some centres not stated)
[1]; read-out: IC50
  IC50: 2500 nM

## N=C(N)NCCCC(NC(=O)C(c1ccc(Cl)cc1)c1ccc(Cl)cc1)C(=O)N[C@H]1CCc2ccccc21 (some centres not stated)
[1]; read-out: IC50
  IC50: > 10000 nM

## N=C(N)NCCCC(NC(=O)C(c1ccccc1)c1ccccc1)C(=O)N[C@H](C(N)=O)c1ccccc1 (some centres not stated)
[1]; read-out: IC50
  IC50: 7500 nM

## N=C(N)NCCCC(NC(=O)C(c1ccccc1)c1ccc(Cl)cc1)C(=O)N1CCCc2ccccc2C1 (configuration not stated)
[1]; read-out: IC50
  IC50: 1100 nM

## N=C(N)NCCCC(NC(=O)C(c1ccccc1)c1ccccc1)C(=O)NCc1ccccn1 (configuration not stated)
[1]; read-out: IC50
  IC50: 3750 nM

## N=C(N)NCCCC(NC(=O)C(c1ccccc1)c1ccccc1)C(=O)N1CCCc2ccccc2C1 (configuration not stated)
[1]; read-out: IC50
  IC50: 2200 nM

## N=C(N)NCCCC(NC(=O)C(c1ccccc1)c1ccccc1)C(=O)N[C@@H](CO)c1ccccc1 (some centres not stated)
[1]; read-out: IC50
  IC50: 22300 nM

## N=C(N)NCCCC(NC(=O)C(c1ccccc1)c1ccccc1)C(=O)NCc1ccc(O)cc1 (configuration not stated)
[2]
  IC50: 80 µM
[4]
  IC50: > 100 µM

## CC(NC(=O)C(CCCN=C(N)N)NC(=O)C(c1ccccc1)c1ccccc1)c1ccc(O)cc1 (racemic)
[2]
  IC50: 75 µM
[1]; read-out: IC50
  IC50: 60 nM
[3]
  IC50: 19 nM
[4]
  IC50: 575 µM

## N=C(N)NCCCC(NC(=O)C(c1ccccc1)c1ccccc1)C(=O)NCC1CCCCN1 (racemic)
[5]
  IC50: Not Active

## N=C(N)NCCCC(NC(=O)C(c1ccccc1)c1ccccc1)C(=O)NC1CCc2cc(O)ccc21 (racemic)
[1]; read-out: IC50
  IC50: 1000 nM

— ChEMBL document CHEMBL1133238, “Structure-activity relationships of neuropeptide Y Y1 receptor antagonists related to BIBP 3226” (Bioorg Med Chem Lett, 2000)
